Assay results taken from US7449447B2, “Peptidomimetic NS3-serine protease inhibitors of hepatitis C virus” (priority 2003, dated 2008).

These molecules were tested against T1, HCV NS3/NS4a serine protease (Hepatitis C virus genotype 1b, UniProt P26663) (assay: Spectrophotometric assay for HCV protease inhibitory activity (chromogenic ester substrates)). Settings: Ki Rating, Table 2; single chain NS4A21-32-GSGS-NS3 3-181 protease, 30° C., pH 6.5.
T1 construct: amino terminus of the NS3 protease domain (amino acids 3-181) with a tetrapeptide linker; made in house; host or cells: E. coli
T1 sequence (P26663 1013-1207, looked up, natural form): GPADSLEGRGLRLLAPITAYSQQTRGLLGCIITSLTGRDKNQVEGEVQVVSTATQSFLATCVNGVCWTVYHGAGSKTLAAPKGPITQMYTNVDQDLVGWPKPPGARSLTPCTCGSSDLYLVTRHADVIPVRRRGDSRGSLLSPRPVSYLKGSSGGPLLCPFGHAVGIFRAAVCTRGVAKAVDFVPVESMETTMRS
Assay type: biochemical, hepatitis C virus (strain 1b)
Procedure: Spectrophotometric Assay: Spectrophotometric assays for the HCV serine protease were performed on the inventive compounds by following the procedure described by R. Zhang et al., Analytical Biochemistry, 270 (1999) 268-275, the disclosure of which is incorporated herein by reference. The assay based on the proteolysis of chromogenic ester substrates is suitable for the continuous monitoring of HCV NS3 protease activity.
HCV NS3 protease (strain 1b) and its NS4A cofactor were constructed as a recombinant single chain protein. The NS4A cofactor domain (amino acid residues 21-32) was fused in frame to the amino terminus of the NS3 protease domain (amino acids 3-181) with a tetrapeptide linker. This NS4A 21-32-GSGS-NS33-181 construct was then expressed in E. coli and purified to >90% homogeneity. Kinetic parameters were determined and found to be the same as that of the full length NS31-631/NS4A1-54 protein complex produced in the baculovirus system (D. L. Sali et al, Biochemistry, 37 (1998) 3392-340). The details of the cloning, expression, purification and kinetic analysis of the of the single chain recombinant protease have been previously described (S. S. Taremi, et al. Protein Science. 7 (1998) 2143-2149.
Protein concentrations were determined by the Biorad dye method using recombinant HCV protease standards previously quantified by amino acid analysis. Prior to assay initiation, the enzyme storage buffer (50 mM sodium phosphate pH 8.0, 300 mM NaCl, 10% glycerol, 0.05% lauryl maltoside and 10 mM DTT) was exchanged for the assay buffer (25 mM MOPS pH 6.5, 300 mM NaCl, 10% glycerol, 0.05% lauryl maltoside, 5 μM EDTA and 5 μM DTT) utilizing a Biorad Bio-Spin P-6 prepacked column.
Protease Assay: HCV protease assays were performed at 30° C. using a 200 μl reaction mix in a 96-well microtiter plate. Assay buffer conditions (25 mM MOPS pH 6.5, 300 mM NaCl, 10% glycerol, 0.05% lauryl maltoside, 5 μM EDTA and 5 μM DTT) were optimized for the NS3/NS4A heterodimer (D. L. Sali et al, ibid.)). Typically, 100 μl mixtures of buffer, substrate and inhibitor were placed in wells and allowed to preincubate at 30° C. for approximately 3 minutes. One hundred μls of pre-warmed protease (30° C.) in assay buffer, was then used to initiate the reaction to produce a final concentration of 1.3 nM HCV). The Substrate cleavage by the protease was monitored over 60 minutes by measuring the release of the phenylazophenol (PAP) product at an absorbance of 370 nm with a continuous read every 30 seconds using a SpectraMax Plus microtiter plate reader (Molecular Devices, Sunnyvale, Calif.). Background hydrolysis of the substrate was subtracted. Inhibitors were tested over a range of concentrations (final DMSO concentration 4%)
Evaluation of Inhibitors The inhibition constants (Ki) for the competitive inhibitors were determined experimentally at fixed concentrations of enzyme and substrate by plotting vo/vi vs. inhibitor concentration ([I]o) according to the rearranged Michaelis-Menten equation for competitive inhibition kinetics: vo/vi=1+[I]o/(Ki(1+[S]o/Km)), where vo is the uninhibited initial velocity, vi is the initial velocity in the presence of inhibitor at any given inhibitor concentration ([I]o) and [S]o is the substrate concentration used. The resulting data were fitted using linear regression and the resulting slope, 1/(Ki(1+[S]o/Km), was used to calculate the Ki value.
Work on `COC(=O)[C@H](CC(F)F)NC(=O)[C@@H]1[C@H]2CC(C)(C)O[C@H]2CN1C(=O)[C@@H](NC(=O)OCc1ccccc1)C1CCCCC1` [Example 170] yielded a Ki of over 500 nM. In the case of `CC(C)[C@H](NC(=O)N[C@H](C(=O)N1C[C@H]2[C@@H]([C@H]1C(=O)N[C@@H](CC(F)F)C(=O)NCCc1ccc(C(=O)O)cc1)C2(C)C)C(C)(C)C)C(=O)c1ccccc1` [Example 132], the Ki is reported as 100 to 500 nM. For `COC(=O)c1ccc(CCNC(=O)[C@H](CC(F)F)NC(=O)[C@@H]2[C@H]3CC(C)(C)O[C@H]3CN2C(=O)[C@@H](NC(=O)OCc2ccccc2)C2CCCCC2)cc1` [Example 173], the Ki was over 500 nM. In the case of `CC(C)(C)OC(=O)N[C@H](C(=O)N1C[C@H]2[C@@H]([C@H]1C(=O)NC(CC(F)F)C(=O)O)C2(C)C)C(C)(C)C` (stereo partly drawn) [Example 167], the Ki is reported as over 500 nM. `CC(C)[C@H](NC(=O)N[C@H](C(=O)N1C[C@H]2[C@@H]([C@H]1C(=O)N[C@@H](CC(F)F)C(=O)NCCc1ccc(C(N)=O)cc1)C2(C)C)C(C)(C)C)C(=O)OC(C)(C)C` [Example 126] was tested, and the Ki was 100 to 500 nM. Molecule `CC1(C)C[C@H]2[C@H](CN(C(=O)[C@@H](NC(=O)OCc3ccccc3)C3CCCCC3)[C@@H]2C(=O)N[C@@H](CC(F)F)C(=O)NCCc2ccccc2)O1` [Example 158] has a Ki of over 500 nM. For `CC(C)[C@H](NC(=O)N[C@H](C(=O)N1C[C@@H]2OC(C)(C)C[C@@H]2[C@H]1C(=O)N[C@@H](CC(F)F)C(=O)NCCc1ccccc1)C1CCCCC1)C(=O)OC(C)(C)C` [Example 152], the Ki was over 500 nM. `CC1(NC(=O)N[C@H](C(=O)N2C[C@H]3[C@@H]([C@H]2C(=O)NC(CC(F)F)C(=O)NCCc2ccccc2)C3(C)C)C(C)(C)C)CCCCC1` (stereo partly drawn) [Example 145] was tested, and the Ki was over 500 nM. With `CC(C)[C@H](NC(=O)N[C@H](C(=O)N1C[C@H]2[C@@H]([C@H]1C(=O)NC(CC(F)F)C(=O)NCCc1ccc(C(=O)O)cc1)C2(C)C)C(C)(C)C)C(=O)O` (stereo partly drawn) [Example 146] the Ki was over 500 nM.

Same assay, conditions: Ki, Table 1; single chain NS4A21-32-GSGS-NS3 3-181 protease, 30° C., pH 6.5
Molecule `COC(=O)c1ccc(CCNC(=O)[C@H](CC(F)F)NC(=O)[C@@H]2[C@@H]3[C@H](CN2C(=O)[C@@H](NC(=O)N[C@H](CN2CCCS2(=O)=O)C(C)(C)C)C(C)(C)C)C3(C)C)c(Cl)c1` [Example 108] has a Ki of 30 nM. For `CC(C)[C@@H](CNS(=O)(=O)c1ccccc1)NC(=O)N[C@H](C(=O)N1C[C@H]2[C@@H]([C@H]1C(=O)N[C@@H](CC(F)F)C(=O)NCCc1ccc(C(=O)O)cc1)C2(C)C)C(C)(C)C` [Example 115], the Ki was 90 nM. Work on `COC(=O)c1ccc(CCNC(=O)[C@H](CC(F)F)NC(=O)[C@@H]2[C@@H]3[C@H](CN2C(=O)[C@@H](NC(=O)N[C@H](CN(C)S(C)(=O)=O)C(C)(C)C)C(C)(C)C)C3(C)C)cc1` [Example 103] yielded a Ki of 22 nM.

Same assay, conditions: Ki, Table 3; rating; single chain NS4A21-32-GSGS-NS3 3-181 protease, 30° C., pH 6.5
`CC(NC(=O)[C@H](CC(F)F)NC(=O)[C@@H]1[C@@H]2[C@H](CN1C(=O)[C@@H](NC(=O)N[C@H](CN(C)S(C)(=O)=O)C(C)(C)C)C(C)(C)C)C2(C)C)c1ccc(Cl)cc1` (stereo partly drawn) [Example 226] gave a Ki of over 500 nM. Molecule `CN(C[C@@H](NC(=O)N[C@H](C(=O)N1C[C@H]2[C@@H]([C@H]1C(=O)N[C@@H](CC(F)F)C(=O)N[C@H]1C[C@H]1c1ccccc1)C2(C)C)C(C)(C)C)C(C)(C)C)S(C)(=O)=O` [Example 307] has a Ki of under 100 nM. For `CCOc1ccccc1CCNC(=O)[C@H](CC(F)F)NC(=O)[C@@H]1[C@@H]2[C@H](CN1C(=O)[C@@H](NC(=O)N[C@H](CN(C)S(C)(=O)=O)C(C)(C)C)C(C)(C)C)C2(C)C` [Example 273], the Ki was under 100 nM. `CN(C[C@@H](NC(=O)N[C@H](C(=O)N1C[C@H]2[C@@H]([C@H]1C(=O)N[C@@H](CC(F)F)C(=O)NCCc1cccc(F)c1)C2(C)C)C(C)(C)C)C(C)(C)C)S(C)(=O)=O` [Example 264] showed a Ki of under 100 nM. With `CN(C[C@@H](NC(=O)N[C@H](C(=O)N1C[C@H]2[C@@H]([C@H]1C(=O)N[C@@H](CC(F)F)C(=O)NCCc1ccc(C(C)(C)C)cc1)C2(C)C)C(C)(C)C)C(C)(C)C)S(C)(=O)=O` [Example 276] the Ki was under 100 nM. Molecule `COc1ccccc1CNC(=O)[C@H](CC(F)F)NC(=O)[C@@H]1[C@@H]2[C@H](CN1C(=O)[C@@H](NC(=O)N[C@H](CN(C)S(C)(=O)=O)C(C)(C)C)C(C)(C)C)C2(C)C` [Example 222] has a Ki of over 500 nM. `CN(C[C@@H](NC(=O)N[C@H](C(=O)N1C[C@H]2[C@@H]([C@H]1C(=O)N[C@@H](CC(F)F)C(=O)N1CCc3ccccc3C1)C2(C)C)C(C)(C)C)C(C)(C)C)S(C)(=O)=O` [Example 302] gave a Ki of over 500 nM. With `CC(C)OCCCNC(=O)[C@H](CC(F)F)NC(=O)[C@@H]1[C@@H]2[C@H](CN1C(=O)[C@@H](NC(=O)N[C@H](CN(C)S(C)(=O)=O)C(C)(C)C)C(C)(C)C)C2(C)C` [Example 214] the Ki was over 500 nM. `CN(C[C@@H](NC(=O)N[C@H](C(=O)N1C[C@H]2[C@@H]([C@H]1C(=O)N[C@@H](CC(F)F)C(=O)NCCc1ccccc1Br)C2(C)C)C(C)(C)C)C(C)(C)C)S(C)(=O)=O` [Example 289] was tested, and the Ki was under 100 nM. Work on `CN(C[C@@H](NC(=O)N[C@H](C(=O)N1C[C@H]2[C@@H]([C@H]1C(=O)N[C@@H](CC(F)F)C(=O)NCC(O)c1ccccc1)C2(C)C)C(C)(C)C)C(C)(C)C)S(C)(=O)=O` (stereo partly drawn) [Example 246] yielded a Ki of 100 to 500 nM. Molecule `CC(CNC(=O)[C@H](CC(F)F)NC(=O)[C@@H]1[C@@H]2[C@H](CN1C(=O)[C@@H](NC(=O)N[C@H](CN(C)S(C)(=O)=O)C(C)(C)C)C(C)(C)C)C2(C)C)c1ccccc1` (stereo partly drawn) [Example 219] has a Ki of under 100 nM. `CN(C[C@@H](NC(=O)N[C@H](C(=O)N1C[C@H]2[C@@H]([C@H]1C(=O)N[C@@H](CC(F)F)C(=O)NCC(C)(C)C)C2(C)C)C(C)(C)C)C(C)(C)C)S(C)(=O)=O` [Example 209] showed a Ki of over 500 nM. With `COc1cccc(CCNC(=O)[C@H](CC(F)F)NC(=O)[C@@H]2[C@@H]3[C@H](CN2C(=O)[C@@H](NC(=O)N[C@H](CN(C)S(C)(=O)=O)C(C)(C)C)C(C)(C)C)C3(C)C)c1` [Example 270] the Ki was under 100 nM. `CN(C[C@@H](NC(=O)N[C@H](C(=O)N1C[C@H]2[C@@H]([C@H]1C(=O)N[C@@H](CC(F)F)C(=O)NCCc1ccc(S(N)(=O)=O)cc1)C2(C)C)C(C)(C)C)C(C)(C)C)S(C)(=O)=O` [Example 201] was tested, and the Ki was under 100 nM. With `Cc1cccc(CCNC(=O)[C@H](CC(F)F)NC(=O)[C@@H]2[C@@H]3[C@H](CN2C(=O)[C@@H](NC(=O)N[C@H](CN(C)S(C)(=O)=O)C(C)(C)C)C(C)(C)C)C3(C)C)c1` [Example 260] the Ki was under 100 nM. Molecule `CC(C)[C@@H](CO)NC(=O)[C@H](CC(F)F)NC(=O)[C@@H]1[C@@H]2[C@H](CN1C(=O)[C@@H](NC(=O)N[C@H](CN(C)S(C)(=O)=O)C(C)(C)C)C(C)(C)C)C2(C)C` [Example 232] has a Ki of over 500 nM. Molecule `CN(C[C@@H](NC(=O)N[C@H](C(=O)N1C[C@H]2[C@@H]([C@H]1C(=O)N[C@@H](CC(F)F)C(=O)NCCc1ccc(O)c(O)c1)C2(C)C)C(C)(C)C)C(C)(C)C)S(C)(=O)=O` [Example 298] has a Ki of under 100 nM. `COc1ccccc1CCNC(=O)[C@H](CC(F)F)NC(=O)[C@@H]1[C@@H]2[C@H](CN1C(=O)[C@@H](NC(=O)N[C@H](CN(C)S(C)(=O)=O)C(C)(C)C)C(C)(C)C)C2(C)C` [Example 269] gave a Ki of under 100 nM. In the case of `CN(C[C@@H](NC(=O)N[C@H](C(=O)N1C[C@H]2[C@@H]([C@H]1C(=O)N[C@@H](CC(F)F)C(=O)NCCc1ccc(O)cc1)C2(C)C)C(C)(C)C)C(C)(C)C)S(C)(=O)=O` [Example 245], the Ki is reported as under 100 nM. `CN(C[C@@H](NC(=O)N[C@H](C(=O)N1C[C@H]2[C@@H]([C@H]1C(=O)N[C@@H](CC(F)F)C(=O)NCCc1ccc(Oc3ccccc3)cc1)C2(C)C)C(C)(C)C)C(C)(C)C)S(C)(=O)=O` [Example 291] was tested, and the Ki was under 100 nM. In the case of `CN(C[C@@H](NC(=O)N[C@H](C(=O)N1C[C@H]2[C@@H]([C@H]1C(=O)N[C@@H](CC(F)F)C(=O)NS(=O)(=O)c1ccccc1)C2(C)C)C(C)(C)C)C(C)(C)C)S(C)(=O)=O` [Example 257], the Ki is reported as over 500 nM.
